Assay results: US20050043262A1, “Novel specific inhibitor of the cyclin kinase inhibitor p21Waf1/Cip1 and methods of using the inhibitor” (priority 2000, published 2005)
In the oligonucleotide strings, read from the 5' end, every base follows the letter of its sugar. An asterisk marks phosphorothioate; unmarked linkages are phosphodiester. Other units and linkages are bracketed, terminal groups are in braces. A string of capitals states the bases alone. d = 2'-deoxy (DNA)

Experiments:
caspase-3 = assay: Caspase-3 activity (CaspACE colorimetric assay) in T47D cells; type: cell-based, human; details: 200 to 400 nM
Description: Caspase-3 Activity: The CaspACE Assay System was used to measure the activity of caspase-3. After incubation under appropriate conditions, the cells were lysed in CaspACE lysis buffer, and protein concentration was determined by dye reagent protein assay (Bio-Rad, Hercules, Calif.). […] The lysates with equal protein amounts were incubated with DEVD-p-nitroaniline substrate for 4 hours at 37° C. The reaction products were detected at 405 nm using a PowerWave X automated plate reader (Bio-Tek Instruments).
As another confirmatory test for antisense p21 ODN-mediated apoptosis, caspase-3 activation was assessed. Members of the caspase family of proteases are essential components of an evolutionarily conserved cell death pathway in multicellular eukaryotes and play key roles in inflammation and apoptosis in mammalian cells. Caspase-3 has substrate specificity for the amino acid sequence DEVD (Asp-Glu-Val-Asp) and is inhibited by the tetrapeptide inhibitor Ac-DEVD-CHO; its catalytic activity was assessed colorimetrically using the labeled Ac-DEVD-pNA substrate. […] T47D cells were grown to confluence, serum starved for 24 hours, and lipofected with antisense p21 or control ODN at the concentrations indicated. Caspase-3 activity was assessed as described in “Capase-3 Activity” using a colorimetric method. […]

p21^Waf1/Cip1 = assay: p21 protein level by Western blot in A10 VSM cells; type: cell-based, rat; details: for p21 levels after ionizing radiation: 12 Gy, up to 4 hours
Description: Western blots: Cells were grown to confluence in 6 cm culture dishes and serum deprived. After transfection and or treatment with appropriate agonist, the cells were washed with phosphate-buffered saline and lysed in lysis buffer and the supernatant was Western blotted as described (Weiss et al., 1998 Am. J. Physiol., 274, p. C1521-C1529).
To determine whether antisense transfection with p21^Waf1/Cip1 antisense oligonucleotides indeed decreases p21^Waf1/Cip1 protein levels, p21^Waf1/Cip1 levels after antisense transfection were examined employing the fact that PMA is a potent inducer of p21^Waf1/Cip1 (Huang et al., 1995 Proc. Natl. Acad. Sci. U.S.A., 92, p. 4793-4797; Michieli et al., 1994 Cancer Res., 54, p. 3391-3395). Since p21^Waf1/Cip1 protein levels were induced in VSM cells between 2 and 6 hours after PMA stimulation (FIG. 4), the p21^Waf1/Cip1 levels in transfected cells after similar times of PMA stimulation were examined. […] There was no effect of the p21^Waf1/Cip1 sense (SEQ. ID NO.:2) control oligodeoxynucleotide on cellular p21^Waf1/Cip1 levels (compare with FIG. 4).
To check for specificity of protein inhibition by the antisense p21^Waf1/Cip1 oligodeoxynucleotide (SEQ. ID NO.: 1), protein levels of p21^Waf1/Cip1 and p27^Kip1 after transfection with antisense p21^Waf1/Cip1 oligodeoxynucleotide (SEQ. ID NO.:1) were examined. In these experiments the ability of antisense oligodeoxynucleotides (SEQ. ID NO.:1) to inhibit maximally stimulated CKI expression (see FIG. 4) was assessed. The cells were stimulated with PMA for 4 hours at various times after overnight serum starvation.
Western blots: Cells were grown to confluence in 6 cm culture dishes and serum deprived. After transfection and or treatment with appropriate agonist, conditioned medium was removed and saved and the cells were washed with phosphate-buffered saline and lysed in lysis buffer. Both supernatant and cell lysate were normalized to the lysate protein concentrations and Western blotted as described (Weiss R H, et al. Am J Physiol 274:C1521-C1529, 1998).
To confirm that p21 levels were increased after exposure to ionizing radiation, and that the oligonucleotides inhibit this phenomenon in A10 cells, p21 protein levels under these conditions were assayed. […] With the exception of the initial decrease in p21 levels at ½ and 1 hours, the results with the control oligonucleotides were similar to that observed in non-transfected cells.
Adriamycin is a prototypical DNA damaging agent used in the treatment of a variety of cancers. The predominantly G2 arrest seen after Adriamycin treatment has been associated with an increase in p21 levels in some cell lines (Siu W Y, et al. FEBS Lett 461:299-305, 1999). In order to determine whether similar augmentation of p21 is seen in A10 VSM cells and whether the antisense p21 oligonucleotide is inhibiting this response, these cells were treated with Adriamycin either with or without first transfecting the cells with the antisense and control oligonucleotides. Confluent VSM cells were transfected with antisense oligonucleotide to p21 or random sequence control oligonucleotide as described above. After 24 hours, the cells were exposed to Adriamycin (500 ng/ml), lysed at the indicated times after exposure, and Western blotted with p21 antibody.
Using a random sequence phosphorothioate oligodeoxynucleotide (SEQ. ID NO.:3) as a control, the effect of the antisense oligodeoxynucleotide to p21 (400 nM) on p21 and α-actin protein expression in A10 VSM cells, was examined. The lysates, normalized for protein content, were Western blotted with either p21 or α-actin antibody.

Row | Substance | caspase-3 cleavage (activity) (caspase-3) | p21 protein level (p21^Waf1/Cip1; A10 VSM cells, 400 nM) | p21 levels after ionizing radiation (p21^Waf1/Cip1; A10 VSM cells) | p21^Waf1/Cip1 protein after maximal stimulation with PMA (p21^Waf1/Cip1; A10 VSM cells, PMA for 4 hours) | PMA-induced p21^Waf1/Cip1 levels (p21^Waf1/Cip1; A10 VSM cells, PMA stimulation up to 6 hours after transfection) | Adriamycin-induced increase of p21 levels (p21^Waf1/Cip1; transfected VSM cells, Adriamycin 500 ng/ml)
1 | 5′-ATC-CCC-AGC-CGG-TTC-TGA-CAT-3′ (antisense ATCCCCAGCCGGTTCTGACAT; listed as DNA, chemistry not fully specified) [antisense p21 ODN] | marked dose-dependent caspase-3 cleavage |  |  |  |  | 
2 | 5′-GACATCACCAGGATCGGACAT-3′ |  | marked inhibition | consistently low | completely inhibited | significant attenuation | marked attenuation
3 | 5′-TGG ATC CGA CAT GTC AGA-3′ (dT*dG*dG*dA*dT*dC*dC*dG*dA*dC*dA*dT*dG*dT*dC*dA*dG*dA) [random sequence control oligonucleotide, reference compound] | no change |  | initial slight inhibition |  |  | 
